From patent US20080241281A1, “Compositions & methods for activation and inhibition of Staphylococcus aureus biofilm development” (priority 2007, published 2008)

Assays:
[1] = tested on: poly N-acetylglucosamine (PNAG); experiment: PNAG western blot of S. aureus biofilm cells (anti-PNAG rabbit polyclonal antibody); type: cell-based, Staphylococcus aureus; details: for PNAG synthesis in the presence of activator: LBBI-1 and LBBA-1 incubated together during biofilm growth
[2] = tested on: sweet taste; details: cited from earlier work
[3] = tested on: rat chorda tympani nerve; details: glucose, sucrose, glycine and saccharine; known in the art; cited from earlier work
[4] = tested on: several cell lines (human)
[5] = tested on: S. aureus (NCTC-8325-4) biofilm; experiment: S. aureus biofilm assay (microtiter wells, crystal violet stain, OD590); type: cell-based, Staphylococcus aureus
Method: In the S. aureus biofilm assay, polystyrene microtiter wells and glass tubes well known in the art were used to develop biofilm in vitro. Fractions dissolved in water were added to a sterile tryptic soy broth (TSB, Difco, Detroit) medium at a final concentration between 0.001-0.01% (w/v). Biofilm was developed and measured according to methods well known in the art. Briefly, a single colony of S. aureus (NCTC-8325-4) (or a clinical isolate) grown on blood agar plate was inoculated into the TSB liquid medium and grown in a shaking water bath at 37° C. until it reached an optical density (OD600) of 0.6-0.8. An aliquot was further diluted in TSB to an OD of 0.05 and 0.1 ml was dispensed into sterile microtiter wells. Solubilized SSF were added to the wells (1 μl/ml from 0.1% of filter sterile stock in water). Cells without SSF served as a control. The microtiter plate was incubated at 37° C. with gentle shaking for up to 16 hours.
(§1) At different time points, cells were collected and assayed for biofilm growth. Unbound cells were aspirated and saved for measuring the growth at OD600 and cell viability on agar plates. Loosely bound cells were removed by washing with phosphate buffer saline (PBS) twice and adherent biofilm cells were stained with 1% crystal violet (CV) stain. After extensive washing, stained cells were air dried, solubilized in dimethylsulfoxide (DMSO) and lysates (100 μl) were measured by a plate reader at OD590.

[6] = tested on: S. aureus; experiment: S. aureus growth (OD600) and cell viability on agar plates; type: cell-based, Staphylococcus aureus; details: growth in TSB with or without substance
Method: as §1

gurmarin [LBBI-1]
PNAG synthesis in the presence of activator [1]: almost abolished
PNAG synthesis in the presence of activator ([1]; listed as biofilm inhibitor): suppresses the production of PNAG
PNAG production ([1]; western blot, S. aureus biofilm): significantly less PNAG production
sweet taste suppression in humans [2]: no apparent effect
response of the rat chorda tympani nerve to sweet-taste stimuli [3]: suppress the response
toxicity to cell lines [4]: non-toxic
biofilm inhibitory property ([5]; 2 μg/ml concentration, microtiter biofilm assay): confirmed
S. aureus biofilm growth ([5]; FIG. 3B): prevents S. aureus biofilm growth
biofilm production in the presence of LBBA-1 ([5]; in the presence of LBBA-1): can inhibit biofilm production
S. aureus cell growth and viability [6]: did not affect the growth of S. aureus
